Data on one compound can be found in publication PMC8512560, “Design, Synthesis, and Antipoliferative Activities of Novel Substituted Imidazole-Thione Linked Benzotriazole Derivatives” (Molecules, 2021).

Experiment [1] relates to HL-60 human leukemia cancer cell line. In words: MTT viability assay, HL-60. Type of experiment: cell-based. As to conditions: Homo sapiens, HL-60, 72 h, mean ± SD of three independent experiments, read-out: Antiproliferative Activities IC50, HL-60. The protocol: (§1) All the human tumour cell lines MCF-7, HL-60, HCT-116, and HUVEC were cultured in Dulbecco’s Modified Eagle’s Medium (DMEM) with 10% fetal bovine serum, 2 mM L-glutamine and 100 µg/mL penicillin/streptomycin. Cells were maintained at 37 °C in 5% CO2 in a humidified incubator. All cells were sub-cultured three times/week by trypsinization using TrypLE Express (1X).
(§2) The Benzotriazole compounds were evaluated for antiproliferative effect using the MTT viability assay of various cancer cell lines (MCF-7, HCT-116 and HL-60) and the normal human umbilical vein endothelial cell line (HUVEC) to calculate the relative IC50 values for each compound. Cells were seeded in triplicate in 96-well plates at a density of 10 × 10^3 cells/mL in a total volume of 200 µL per well. 0.1% of DMSO was used as a vehicle control. After this time, they were treated with 2 µL test compound which had been pre-prepared as stock solutions in ethanol to furnish the concentration range of study, 10 nM to 100 µM, and re-incubated for a further 72 h. The culture medium was then removed, and the cells washed with 100 µL phosphate buffered saline (PBS) and 50 µL MTT added, to reach a final concentration of 1 mg/mL MTT added. Cells were incubated for 2 h in darkness at 37 °C. At this point solubilisation was begun through the addition of […] DMSO and the cells maintained at room temperature in darkness for 20 min to ensure thorough colour diffusion before reading the absorbance. Plates were incubated for 72 h at 37 °C + 5% CO2. The MTT (5 mg/mL in PBS) was added and incubated for another 4 h, and the optical density was detected with a microplate reader at 570 nm. Results were expressed as percentage viability relative to vehicle control (100%). Dose response curves were plotted and IC50 values (concentration of drug resulting in 50% reduction in cell survival) were obtained using the commercial software package Prism (GraphPad Software, Inc., La Jolla, CA, USA). All the experiments were repeated in at least three independent experiments.
Background: Tetrazolium assays rely on reduction of a dye to a coloured formazan, in cell work by metabolically active cells.

Another experiment deals with PARP. In words: Western blot of PARP cleavage in HL-60 cells. As to conditions: HL-60, after a 48 h treatment. Type of experiment: cell-based, human. The procedure: HL-60 cells were seeded at a density of 1 × 10^5 cells/flask in T25 flasks. After 48 h, whole cell lysates were prepared from untreated cells or cells treated with vehicle control (EtOH, 0.1% v/v) or compound BI9 (0.5 and 1 μM). HL-60 cells were harvested in RIPA buffer supplemented with protease inhibitors (Roche Diagnostics), phosphatase inhibitor cocktail 2 (Sigma-Aldrich), and phosphatase inhibitor cocktail 3 (Sigma-Aldrich). Equal quantities of protein (as determined by a BCA assay) were resolved by SDS-PAGE (12%) followed by transfer to PVDF membranes. Membranes were blocked in 5% bovine serum albumin/TBST for 1 h. Membranes were incubated in the relevant primary antibodies at 4 °C overnight, washed with TBST, and incubated in horseradish peroxidase conjugated secondary antibody for 1 h at rt and washed again. Western blot analysis was performed as described above using antibodies directed against BAX [1:1000] (Cell Signaling Technology), PARP [1:500] (Cell Signaling Technology) and Bcl-2 [1:500] (Cell Signaling Technology) followed by incubation with a horseradish peroxidase-conjugated anti-mouse antibody [1:2000] (Promega, Madison, WI, USA). All blots were probed with β-actin antibody [1:5000] (Sigma) to confirm equal loading. Proteins were detected using enhanced chemiluminescent Western blot detection (Clarity Western ECL substrate) (Bio Rad) on the ChemiDoc MP System (Bio Rad). […]

Experiment [2] concerns HCT-116 human colon cancer cell line. In words: MTT viability assay, HCT-116. Type of experiment: cell-based. As to conditions: Homo sapiens, HCT-116, 72 h, mean ± SD of three independent experiments, read-out: Antiproliferative Activities IC50, HCT-116. The protocol:
as §1, §2

A further experiment deals with BAX. In words: Western blot of BAX expression in HL-60 cells. Type of experiment: cell-based, human. As to conditions: HL-60, 0.5 and 1 µM, compared to the untreated group. The procedure: (§3) HL-60 cells were seeded at a density of 1 × 10^5 cells/flask in T25 flasks. […] HL-60 cells were harvested in RIPA buffer supplemented with protease inhibitors (Roche Diagnostics), phosphatase inhibitor cocktail 2 (Sigma-Aldrich), and phosphatase inhibitor cocktail 3 (Sigma-Aldrich). Equal quantities of protein (as determined by a BCA assay) were resolved by SDS-PAGE (12%) followed by transfer to PVDF membranes. Membranes were blocked in 5% bovine serum albumin/TBST for 1 h. Membranes were incubated in the relevant primary antibodies at 4 °C overnight, washed with TBST, and incubated in horseradish peroxidase conjugated secondary antibody for 1 h at rt and washed again. Western blot analysis was performed as described above using antibodies directed against BAX [1:1000] (Cell Signaling Technology), PARP [1:500] (Cell Signaling Technology) and Bcl-2 [1:500] (Cell Signaling Technology) followed by incubation with a horseradish peroxidase-conjugated anti-mouse antibody [1:2000] (Promega, Madison, WI, USA). All blots were probed with β-actin antibody [1:5000] (Sigma) to confirm equal loading. Proteins were detected using enhanced chemiluminescent Western blot detection (Clarity Western ECL substrate) (Bio Rad) on the ChemiDoc MP System (Bio Rad). Experiments were performed on three independent occasions.
In general terms: Immunoblotting shows a protein as a band on a membrane.

The next experiment has as its system Bcl-2. In words: Western blot of Bcl-2 expression in HL-60 cells. Type of experiment: cell-based, human. As to conditions: HL-60, 0.5 and 1 µM, compared to the untreated group. The protocol:
as §3

In experiment [3] the test system is HUVEC human umbilical vein endothelial cell line. In words: MTT viability assay, normal HUVEC cells. Type of experiment: cell-based. As to conditions: 72 h, mean ± SD of three independent experiments. The protocol:
as §1, §2

As usually defined, the IC50 is the concentration needed to halve the response being measured.

Regarding `S=c1[nH]c(-n2nnc3ccccc32)cn1-c1ccc(Cl)cc1Cl` [BI9, 4-(1H-Benzo[d][1,2,3]Triazol-1-yl)-1-(2,4-Dichlorophenyl)-1H-Imidazole-2(3H)-Thione], the IC50 in experiment [1] was 400 ± 30 nM; in experiment [2], 2630 ± 170 nM; in experiment [3], greater than 100 µM. Also, the “PARP cleavage (indicator of apoptosis)” value in the experiment with PARP was “confirmed”. Besides, the “Expression level of pro-apoptotic Bax protein” value in the experiment on BAX is “significantly up-regulated”. Further, the “Expression of pro-survival protein Bcl-2” value with Bcl-2 is recorded as “down-regulated”.
